ChEMBL document CHEMBL1201862, “PubChem BioAssay data set” (2004)
Blank lines part the entries; values can stand above or below the compound they belong to. The source made the active and inactive calls.

Tests used:
[1] = biological target: T1, Insulin-degrading enzyme (Homo sapiens, UniProt P14735); experiment: recombinant IDE activation, cell-free – biochemical, fluorescence polarization, counter-screen for IDE activator project, dose response (AID 588681)
T1 sequence (P14735 whole entry): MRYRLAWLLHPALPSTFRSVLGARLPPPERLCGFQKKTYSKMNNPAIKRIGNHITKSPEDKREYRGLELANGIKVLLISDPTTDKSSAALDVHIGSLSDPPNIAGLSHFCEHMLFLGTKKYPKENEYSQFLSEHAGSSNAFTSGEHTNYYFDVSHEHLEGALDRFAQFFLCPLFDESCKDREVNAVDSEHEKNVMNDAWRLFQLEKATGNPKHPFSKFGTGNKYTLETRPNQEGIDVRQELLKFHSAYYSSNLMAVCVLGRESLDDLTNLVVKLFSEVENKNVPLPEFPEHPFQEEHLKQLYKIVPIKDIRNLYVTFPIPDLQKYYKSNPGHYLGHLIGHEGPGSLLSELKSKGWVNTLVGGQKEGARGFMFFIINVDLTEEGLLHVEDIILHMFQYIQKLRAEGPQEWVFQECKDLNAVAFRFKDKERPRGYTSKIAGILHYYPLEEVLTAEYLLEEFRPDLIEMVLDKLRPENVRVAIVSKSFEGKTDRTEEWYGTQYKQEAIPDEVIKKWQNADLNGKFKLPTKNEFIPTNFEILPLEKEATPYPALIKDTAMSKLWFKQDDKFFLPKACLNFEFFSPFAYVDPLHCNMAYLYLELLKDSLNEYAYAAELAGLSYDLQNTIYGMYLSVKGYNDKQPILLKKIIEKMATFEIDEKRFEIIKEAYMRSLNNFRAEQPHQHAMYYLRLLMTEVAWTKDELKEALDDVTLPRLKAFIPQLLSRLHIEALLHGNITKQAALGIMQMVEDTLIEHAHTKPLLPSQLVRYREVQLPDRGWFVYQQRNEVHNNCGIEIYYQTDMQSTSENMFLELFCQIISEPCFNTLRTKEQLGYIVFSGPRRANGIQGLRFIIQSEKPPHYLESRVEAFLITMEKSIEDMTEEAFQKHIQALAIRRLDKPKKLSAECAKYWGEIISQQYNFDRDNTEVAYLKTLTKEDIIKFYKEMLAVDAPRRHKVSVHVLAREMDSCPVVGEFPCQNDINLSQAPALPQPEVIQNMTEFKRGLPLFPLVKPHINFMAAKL

[2] = tested on: HEK293; experiment: optical interference in Abeta FP readout, dose response, artefact control for IDE activator project, biochemical, fluorescence polarization (AID 588442); type: functional, cell-based; details: Homo sapiens
[3] = biological target: T1, Insulin-degrading enzyme; experiment: cellular IDE activation of Abeta substrate cleavage – fluorescence polarization, HEK cells, dose response (AID 588439); type: functional, cell-based
[4] = tested on: HEK293; experiment: membrane integrity loss in HEK cells – cell-based, fluorescence, cytotoxicity control for IDE activator project, dose response (AID 588440); type: functional; details: Homo sapiens;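 note: cytotoxicity by LDH release measuring loss of membrane integrity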
[5] = biological target: Multidrug resistance protein CDR1 (Candida albicans, UniProt P43071); experiment: inhibition of Nile Red efflux via Candida CDR1 – S. cerevisiae AD1-8u, singleplex, Cherry Pick1 hits, dose response (AID 588606); type: functional
[6] = Luminescence Cell-Based Dose Retest to Confirm Inhibitors of Cancer Stem Cells. [Related pubchem assays (depositor defined):AID2717, AID2721]; type: functional; details: Homo sapiens
[7] = biological target: T2, Caspase-3 (Homo sapiens, UniProt P42574); experiment: SAR Analysis of small molecule inhibitors of Sentrin-specific proteases (SENPs) using a Caspase-3 Selectivity assay. [Related pubchem assays (depositor defined):AID2540, AID2599, AID434973, AID489001]; type: functional
T2 sequence (P42574 whole entry): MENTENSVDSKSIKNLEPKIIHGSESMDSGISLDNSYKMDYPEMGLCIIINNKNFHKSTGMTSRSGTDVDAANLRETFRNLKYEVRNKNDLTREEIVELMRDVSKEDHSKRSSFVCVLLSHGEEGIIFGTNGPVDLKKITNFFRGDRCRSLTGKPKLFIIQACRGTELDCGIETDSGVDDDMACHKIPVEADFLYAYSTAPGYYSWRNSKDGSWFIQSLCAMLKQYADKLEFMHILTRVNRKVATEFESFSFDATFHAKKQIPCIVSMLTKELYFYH

[8] = biological target: T3, Sentrin-specific protease 7 (Homo sapiens, UniProt Q9BQF6); experiment: inhibition of human SENP7 cleavage activity – biochemical, luminescence, SAR follow-up (AID 504497); type: functional
T3 sequence (Q9BQF6 whole entry): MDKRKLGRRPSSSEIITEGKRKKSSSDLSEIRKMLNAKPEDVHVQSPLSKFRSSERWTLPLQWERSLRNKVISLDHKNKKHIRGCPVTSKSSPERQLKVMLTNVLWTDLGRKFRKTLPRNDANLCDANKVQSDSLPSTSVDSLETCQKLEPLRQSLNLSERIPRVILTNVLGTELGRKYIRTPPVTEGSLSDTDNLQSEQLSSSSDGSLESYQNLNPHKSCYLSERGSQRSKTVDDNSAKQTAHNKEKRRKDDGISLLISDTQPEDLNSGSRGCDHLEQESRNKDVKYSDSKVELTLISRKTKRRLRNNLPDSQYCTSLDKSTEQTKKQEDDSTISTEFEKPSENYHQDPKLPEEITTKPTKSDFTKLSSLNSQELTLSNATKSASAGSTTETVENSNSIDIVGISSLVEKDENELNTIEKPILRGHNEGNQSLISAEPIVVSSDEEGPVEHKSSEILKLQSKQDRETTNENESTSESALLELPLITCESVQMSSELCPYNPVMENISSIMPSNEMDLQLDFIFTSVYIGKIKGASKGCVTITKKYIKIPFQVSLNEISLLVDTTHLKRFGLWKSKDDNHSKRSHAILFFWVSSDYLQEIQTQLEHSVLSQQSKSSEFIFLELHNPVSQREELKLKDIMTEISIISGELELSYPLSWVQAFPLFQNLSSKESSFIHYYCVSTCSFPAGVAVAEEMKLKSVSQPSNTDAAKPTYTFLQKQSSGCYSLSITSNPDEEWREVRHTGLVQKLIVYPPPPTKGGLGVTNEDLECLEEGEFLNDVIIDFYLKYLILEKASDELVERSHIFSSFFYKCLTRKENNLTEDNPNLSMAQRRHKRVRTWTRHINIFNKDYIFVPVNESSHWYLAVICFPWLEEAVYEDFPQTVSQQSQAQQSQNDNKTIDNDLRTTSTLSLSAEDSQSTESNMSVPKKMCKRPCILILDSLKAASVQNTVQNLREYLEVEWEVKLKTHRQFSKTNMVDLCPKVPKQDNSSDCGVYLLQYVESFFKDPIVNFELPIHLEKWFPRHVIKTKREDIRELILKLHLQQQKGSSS

[9] = biological target: T4, Sentrin-specific protease 6 (Homo sapiens, UniProt Q9GZR1); experiment: SAR Analysis of small molecule inhibitors of Sentrin-specific protease 6 (SENP6) using a Luminescent assay. [Related pubchem assays (depositor defined):AID2582, AID2599]; type: functional
T4 sequence (Q9GZR1 whole entry): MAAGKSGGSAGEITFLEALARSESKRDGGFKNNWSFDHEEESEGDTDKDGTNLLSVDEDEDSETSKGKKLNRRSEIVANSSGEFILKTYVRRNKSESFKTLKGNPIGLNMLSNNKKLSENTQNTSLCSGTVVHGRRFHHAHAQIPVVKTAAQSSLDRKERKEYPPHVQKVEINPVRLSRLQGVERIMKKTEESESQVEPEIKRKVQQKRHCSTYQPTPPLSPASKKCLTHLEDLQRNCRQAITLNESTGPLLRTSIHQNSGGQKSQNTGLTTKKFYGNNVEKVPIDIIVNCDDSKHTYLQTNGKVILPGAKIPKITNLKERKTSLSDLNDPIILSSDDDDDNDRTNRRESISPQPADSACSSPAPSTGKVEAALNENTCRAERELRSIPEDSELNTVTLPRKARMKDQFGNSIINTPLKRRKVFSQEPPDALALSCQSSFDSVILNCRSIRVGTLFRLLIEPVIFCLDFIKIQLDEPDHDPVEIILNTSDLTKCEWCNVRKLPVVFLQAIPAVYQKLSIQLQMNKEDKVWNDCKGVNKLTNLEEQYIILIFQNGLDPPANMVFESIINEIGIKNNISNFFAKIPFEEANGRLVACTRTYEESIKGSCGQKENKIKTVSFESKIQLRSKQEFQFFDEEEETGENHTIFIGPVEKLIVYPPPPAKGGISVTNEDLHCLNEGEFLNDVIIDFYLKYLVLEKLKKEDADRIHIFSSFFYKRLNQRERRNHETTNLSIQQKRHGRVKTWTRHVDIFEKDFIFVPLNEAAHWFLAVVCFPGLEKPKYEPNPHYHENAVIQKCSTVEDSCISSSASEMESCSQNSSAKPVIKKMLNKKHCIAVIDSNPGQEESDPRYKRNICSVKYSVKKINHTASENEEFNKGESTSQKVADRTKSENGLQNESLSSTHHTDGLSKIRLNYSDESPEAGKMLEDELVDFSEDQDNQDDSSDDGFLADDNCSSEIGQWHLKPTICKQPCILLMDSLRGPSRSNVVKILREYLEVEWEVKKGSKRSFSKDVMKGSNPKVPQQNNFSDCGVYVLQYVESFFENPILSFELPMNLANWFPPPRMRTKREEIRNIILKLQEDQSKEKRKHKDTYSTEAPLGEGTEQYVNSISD

[10] = biological target: T5, Sentrin-specific protease 8 (Homo sapiens, UniProt Q96LD8); experiment: inhibition of human SENP8 cleavage activity – biochemical, luminescence, SAR follow-up (AID 504501); type: functional
T5 sequence (Q96LD8 whole entry): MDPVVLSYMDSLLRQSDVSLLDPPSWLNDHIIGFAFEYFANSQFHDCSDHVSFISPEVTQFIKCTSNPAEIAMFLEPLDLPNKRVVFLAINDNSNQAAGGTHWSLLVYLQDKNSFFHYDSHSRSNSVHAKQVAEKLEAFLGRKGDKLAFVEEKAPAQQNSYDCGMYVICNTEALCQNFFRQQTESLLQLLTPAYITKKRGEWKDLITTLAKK

[11] = biological target: Dual specificity tyrosine-phosphorylation-regulated kinase 1A (Rattus norvegicus, UniProt Q63470); type: biochemical, Homo sapiens
[12] = biological target: Protein disulfide-isomerase (Homo sapiens, UniProt P07237); experiment: inhibition of PDI-driven insulin aggregation – biochemical, turbidity, absorbance, cherry-picked samples, dose response (AID 602350); type: functional
[13] = biological target: Serine/threonine-protein kinase TAO1 (Homo sapiens, UniProt Q7L7X3); type: functional
[14] = rise of 4N DNA cells, HeLa – IC50, dose response (AID 1117351); type: functional, cell-based
[15] = rise of 2N DNA cells, HeLa – IC50, dose response (AID 1117349); type: functional, cell-based
[16] = biological target: Serine/threonine-protein kinase D2 (Homo sapiens, UniProt Q9BZL6); type: functional;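 note: measured against PRKD2 as one member of a kinome-wide kinase profiling panel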
Chain of Serine/threonine-protein kinase D2 (Q9BZL6 whole entry): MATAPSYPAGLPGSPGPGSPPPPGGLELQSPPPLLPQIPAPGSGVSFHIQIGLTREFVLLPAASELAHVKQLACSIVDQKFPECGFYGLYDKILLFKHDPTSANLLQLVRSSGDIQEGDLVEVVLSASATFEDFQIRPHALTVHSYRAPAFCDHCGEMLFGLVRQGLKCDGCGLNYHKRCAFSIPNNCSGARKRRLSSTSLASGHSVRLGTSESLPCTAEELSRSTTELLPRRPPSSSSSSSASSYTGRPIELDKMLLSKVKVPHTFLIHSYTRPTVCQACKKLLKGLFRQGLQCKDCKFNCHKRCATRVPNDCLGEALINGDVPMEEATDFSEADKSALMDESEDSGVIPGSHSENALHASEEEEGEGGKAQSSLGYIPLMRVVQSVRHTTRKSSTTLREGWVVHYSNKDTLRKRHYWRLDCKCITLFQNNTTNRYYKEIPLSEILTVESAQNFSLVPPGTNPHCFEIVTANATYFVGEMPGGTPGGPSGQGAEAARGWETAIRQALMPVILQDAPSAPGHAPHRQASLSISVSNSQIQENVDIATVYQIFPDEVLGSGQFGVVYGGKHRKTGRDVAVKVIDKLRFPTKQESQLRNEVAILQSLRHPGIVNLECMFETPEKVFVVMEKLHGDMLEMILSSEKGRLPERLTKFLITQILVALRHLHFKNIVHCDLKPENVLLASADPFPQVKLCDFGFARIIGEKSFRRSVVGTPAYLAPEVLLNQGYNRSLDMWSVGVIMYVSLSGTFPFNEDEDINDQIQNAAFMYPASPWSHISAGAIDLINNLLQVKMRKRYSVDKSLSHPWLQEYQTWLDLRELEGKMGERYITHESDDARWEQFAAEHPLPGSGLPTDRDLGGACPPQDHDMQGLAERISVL

Chain of Serine/threonine-protein kinase TAO1 (Q7L7X3 whole entry): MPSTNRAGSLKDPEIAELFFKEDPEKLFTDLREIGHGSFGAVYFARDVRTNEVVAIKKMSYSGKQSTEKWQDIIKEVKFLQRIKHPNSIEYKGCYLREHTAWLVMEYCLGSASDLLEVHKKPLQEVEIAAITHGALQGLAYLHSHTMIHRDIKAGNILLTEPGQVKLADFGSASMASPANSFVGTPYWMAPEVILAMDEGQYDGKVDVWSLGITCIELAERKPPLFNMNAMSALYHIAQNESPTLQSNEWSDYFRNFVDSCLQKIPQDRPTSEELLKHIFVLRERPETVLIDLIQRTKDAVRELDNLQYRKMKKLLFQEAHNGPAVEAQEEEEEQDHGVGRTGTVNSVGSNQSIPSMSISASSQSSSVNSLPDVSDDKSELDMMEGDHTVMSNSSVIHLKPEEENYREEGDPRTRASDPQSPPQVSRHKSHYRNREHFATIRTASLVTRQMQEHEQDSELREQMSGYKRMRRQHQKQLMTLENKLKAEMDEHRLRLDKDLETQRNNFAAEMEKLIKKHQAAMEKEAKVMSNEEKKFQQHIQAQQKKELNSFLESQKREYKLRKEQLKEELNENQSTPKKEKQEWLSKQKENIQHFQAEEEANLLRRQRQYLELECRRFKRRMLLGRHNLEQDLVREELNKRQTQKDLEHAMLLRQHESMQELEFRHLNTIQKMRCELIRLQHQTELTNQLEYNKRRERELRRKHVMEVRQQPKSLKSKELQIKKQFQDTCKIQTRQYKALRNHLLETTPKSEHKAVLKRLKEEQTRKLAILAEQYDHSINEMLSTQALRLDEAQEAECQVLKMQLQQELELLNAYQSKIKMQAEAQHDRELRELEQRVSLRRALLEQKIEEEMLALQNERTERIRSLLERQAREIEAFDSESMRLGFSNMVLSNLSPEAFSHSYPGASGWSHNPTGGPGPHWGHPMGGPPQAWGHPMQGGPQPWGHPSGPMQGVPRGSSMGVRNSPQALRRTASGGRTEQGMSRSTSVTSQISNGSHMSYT
Chain of Protein disulfide-isomerase (P07237 whole entry): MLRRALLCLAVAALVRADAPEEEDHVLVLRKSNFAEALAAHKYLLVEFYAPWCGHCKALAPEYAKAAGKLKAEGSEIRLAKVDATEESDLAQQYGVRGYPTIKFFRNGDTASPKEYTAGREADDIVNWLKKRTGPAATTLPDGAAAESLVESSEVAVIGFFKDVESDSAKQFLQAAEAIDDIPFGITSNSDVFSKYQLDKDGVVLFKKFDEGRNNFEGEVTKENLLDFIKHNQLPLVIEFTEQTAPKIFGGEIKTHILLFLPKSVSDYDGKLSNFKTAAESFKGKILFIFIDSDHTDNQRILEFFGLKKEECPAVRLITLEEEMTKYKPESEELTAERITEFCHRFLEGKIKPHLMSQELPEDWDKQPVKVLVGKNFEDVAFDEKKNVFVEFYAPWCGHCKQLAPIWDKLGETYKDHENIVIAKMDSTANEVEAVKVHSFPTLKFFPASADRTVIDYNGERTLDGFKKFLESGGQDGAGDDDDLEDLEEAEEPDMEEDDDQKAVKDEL
Chain of Multidrug resistance protein CDR1 (P43071 whole entry, looked up): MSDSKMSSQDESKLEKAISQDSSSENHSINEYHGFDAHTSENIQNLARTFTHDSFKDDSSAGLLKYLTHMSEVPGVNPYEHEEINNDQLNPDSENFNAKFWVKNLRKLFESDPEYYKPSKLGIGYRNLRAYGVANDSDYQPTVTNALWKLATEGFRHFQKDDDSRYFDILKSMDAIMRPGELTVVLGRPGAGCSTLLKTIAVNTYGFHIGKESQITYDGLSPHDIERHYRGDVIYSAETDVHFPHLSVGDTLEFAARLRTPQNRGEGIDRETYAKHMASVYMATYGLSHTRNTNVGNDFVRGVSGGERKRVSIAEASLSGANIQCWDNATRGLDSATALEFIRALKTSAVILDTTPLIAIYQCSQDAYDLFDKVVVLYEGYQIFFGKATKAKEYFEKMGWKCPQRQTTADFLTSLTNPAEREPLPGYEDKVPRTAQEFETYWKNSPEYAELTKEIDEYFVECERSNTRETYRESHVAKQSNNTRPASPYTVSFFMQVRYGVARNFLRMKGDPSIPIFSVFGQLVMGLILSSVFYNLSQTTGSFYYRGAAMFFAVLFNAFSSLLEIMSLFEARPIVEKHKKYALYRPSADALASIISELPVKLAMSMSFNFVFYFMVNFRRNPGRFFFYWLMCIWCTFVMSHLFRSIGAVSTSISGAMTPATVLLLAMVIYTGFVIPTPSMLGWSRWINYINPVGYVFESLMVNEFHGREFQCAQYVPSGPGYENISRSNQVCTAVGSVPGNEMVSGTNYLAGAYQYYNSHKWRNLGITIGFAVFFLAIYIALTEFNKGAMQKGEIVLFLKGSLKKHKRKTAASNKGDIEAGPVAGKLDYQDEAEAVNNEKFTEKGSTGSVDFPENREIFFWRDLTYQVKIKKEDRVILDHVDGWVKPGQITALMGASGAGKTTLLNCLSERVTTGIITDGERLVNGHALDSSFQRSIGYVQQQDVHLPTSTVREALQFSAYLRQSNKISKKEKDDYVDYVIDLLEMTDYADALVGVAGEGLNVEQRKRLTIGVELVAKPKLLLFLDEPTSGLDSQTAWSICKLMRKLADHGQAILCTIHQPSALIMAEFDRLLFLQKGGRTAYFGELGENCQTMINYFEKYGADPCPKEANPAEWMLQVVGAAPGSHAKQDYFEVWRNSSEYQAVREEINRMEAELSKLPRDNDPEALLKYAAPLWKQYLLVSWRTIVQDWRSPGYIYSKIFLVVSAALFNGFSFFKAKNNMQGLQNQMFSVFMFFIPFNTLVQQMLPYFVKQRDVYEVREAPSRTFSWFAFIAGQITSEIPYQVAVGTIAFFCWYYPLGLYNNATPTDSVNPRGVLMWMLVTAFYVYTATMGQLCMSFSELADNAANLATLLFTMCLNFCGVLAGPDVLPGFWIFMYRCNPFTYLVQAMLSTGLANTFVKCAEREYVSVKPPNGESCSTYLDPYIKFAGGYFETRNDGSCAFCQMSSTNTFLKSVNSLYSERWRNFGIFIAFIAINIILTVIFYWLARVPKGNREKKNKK

Compound: CCc1ccc(-c2nc(C[S+]([O-])CC(=O)O)c(C)o2)cc1 (centres undefined)
EC50 [1]: > 54.7 µM (inactive)
EC50 [2]: > 55.9 µM (inactive)
EC50 [3]: > 54.7 µM (inactive)
IC50 [4]: > 89.2 µM (inactive)

Compound: CCOc1ccc(NC(=O)CSc2nnc(Cc3cccn3C)n2-c2ccc(F)cc2)cc1
EC50 [5]: 0.013 µM (active)

Compound: Cc1cccc(N2CCN(C(S)=Nc3ccc4nc(N5CCN(C)CC5)cc(C)c4c3)CC2C)c1 (centres undefined)
EC50 [1]: > 54.7 µM (inactive)
EC50 [2]: > 54.7 µM (inactive)
EC50 [3]: > 54.7 µM (inactive)
IC50 [4]: 8.41 µM (active)
AC50 [6]: 7.58 µM (active)

IC50 [7]: > 99 µM (inactive)
IC50 [8]: > 99 µM (inactive)
IC50 [9]: > 99 µM (inactive)
Compound: Cc1ccc(/C=C/c2nc(-c3ccc(NS(=O)(=O)c4cccs4)cc3)no2)cc1
IC50 [10]: > 99 µM (inactive)

AC50 [11]: 6.66 µM (active)
AC50 [12]: 3.51 µM (active)
Compound: C[C@@H]1O[C@@H](OC[C@@H]2O[C@H](Oc3c(-c4ccc(O)cc4)oc4cc(O)cc(O)c4c3=O)[C@@H](O)[C@H](O)[C@H]2O)[C@H](O)[C@H](O)[C@H]1O

IC50 [7]: > 99 µM (inactive)
IC50 [8]: 34.3 µM (active)
IC50 [9]: > 99 µM (inactive)
Compound: Cc1cc(NS(=O)(=O)c2ccc(F)c(F)c2)cc2sc(NC(=O)c3ccccc3)nc12
IC50 [10]: > 99 µM (inactive)

Compound: Clc1ccc(Nc2nnc(Cc3ccncc3)c3ccccc23)cc1 [VATALANIB]
Ki [13]: > 7.94 µM (inactive)
IC50 [14]: > 10 µM (inactive)
IC50 [15]: > 10 µM (inactive)
Ki [16]: > 10 µM (inactive)
